From US9850283B2, “Macrocyclic inhibitors of the PD-1/PD-L1 and CD80(B7-1)/PD-L1 protein/protein interactions” (BRISTOL-MYERS SQUIBB COMPANY, priority 2013, dated 2017)
Where two headings read alike, the source gives them in different places. Positions of bridges follow the written chain, without caps; N, C: chain ends. Non-standard residues stand in square brackets, D forms with d. Residues, ends and D or L forms follow the SMILES beside them. ξ: configuration not given here. Phe(3-CF3) = N[C@@H](Cc1cccc(C(F)(F)F)c1)C(=O)O; Phe(3-Cl) = N[C@@H](Cc1cccc(Cl)c1)C(=O)O; Phe(4-Cl) = N[C@@H](Cc1ccc(Cl)cc1)C(=O)O; Bta = N[C@@H](Cc1csc2ccccc12)C(=O)O; Hyp = O=C(O)[C@@H]1C[C@@H](O)CN1; NMeF = CN[C@@H](Cc1ccccc1)C(=O)O; NMeNle = CCCC[C@H](NC)C(=O)O; NMeA = CN[C@@H](C)C(=O)O; Dab = NCC[C@H](N)C(=O)O; Dap = NC[C@H](N)C(=O)O; ξC = NC(CS)C(=O)O; Sar = CNCC(=O)O

Tests used:
[1] = target: T1, LK35.2-hPD-L1 cells / PE-labeled PD-1-Ig (Homo sapiens, UniProt Q9NZQ7); experiment: LK35.2-hPD-L1 cell binding high-content screening assay; format: cell-based; conditions: cluster symbol, read-out: CBA IC50 cluster
T1 construct: expressed in transfected cells; host or cells: LK35.2 mouse B cell line
Outline: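 Compound effect on PD-1/PD-L1 binding is measured by imaging cell-associated phycoerythrin signal. Human PD-1-Ig (PE on Ig tag, 1 nM final) is applied with compound to a murine B cell line overexpressing human PD-L1 for 1 h at 37 °C in serum-containing RPMI.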

Human PD-L1/PD-1 = target: T2, Human PD-L1/PD-1 (Homo sapiens, UniProt Q9NZQ7); experiment: HTRF PD-1-Ig/PD-L1-His binding assay (human PD-L1); conditions: cluster symbol; read-out: HTRF IC50 cluster
T2 construct: made in house; host or cells: HEK293T
Outline: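 Ig- and His-fused extracellular PD-1/PD-L1 binding in BSA/Tween-20 dPBS. HTRF with Eu anti-Ig (1 nM final) and APC anti-His (20 nM final).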

[2] = cell binding assay, cell line not given
[3] = cell line of CBA not given (LK35.2-hPD-L1 or 293T-hPD-L1)

T1 sequence (Q9NZQ7 19-290): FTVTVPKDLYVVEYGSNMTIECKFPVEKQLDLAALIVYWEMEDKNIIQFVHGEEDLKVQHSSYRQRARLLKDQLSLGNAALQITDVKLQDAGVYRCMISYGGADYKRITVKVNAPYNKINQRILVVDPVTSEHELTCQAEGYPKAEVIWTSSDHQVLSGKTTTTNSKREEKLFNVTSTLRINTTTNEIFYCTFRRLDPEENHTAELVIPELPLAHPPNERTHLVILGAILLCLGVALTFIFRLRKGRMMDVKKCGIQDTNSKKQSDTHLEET
T2 sequence (Q9NZQ7 with tags, fused parts or gaps): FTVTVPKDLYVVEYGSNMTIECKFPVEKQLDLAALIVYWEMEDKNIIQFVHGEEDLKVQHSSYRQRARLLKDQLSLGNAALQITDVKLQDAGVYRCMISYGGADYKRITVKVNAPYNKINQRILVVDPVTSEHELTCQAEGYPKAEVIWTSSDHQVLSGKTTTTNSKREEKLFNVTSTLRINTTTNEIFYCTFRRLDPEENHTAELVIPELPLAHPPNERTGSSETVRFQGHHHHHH

Row | SMILES | IC50 [1, 2] [nM] | IC50 (Human PD-L1/PD-1) [nM] | IC50 [1, 3] [nM]
1 | CCCC[C@H]1C(=O)N(C)[C@@H](CCCC)C(=O)N[C@@H](CCN)C(=O)N[C@H](C(=O)NCC(N)=O)CSCC(=O)N[C@@H](Cc2ccccc2)C(=O)N(C)[C@@H](C)C(=O)N[C@@H](CC(N)=O)C(=O)N2CCC[C@H]2C(=O)N[C@@H](Cc2cnc[nH]2)C(=O)N[C@@H](CC(C)C)C(=O)N(C)CC(=O)N[C@@H](Cc2c[nH]c3ccccc23)C(=O)N[C@@H](CO)C(=O)N[C@@H](Cc2c[nH]c3ccccc23)C(=O)N1C [Example 5006] ({CH2CO}-F[NMeA]NPHL[Sar]WSW[NMeNle][NMeNle][Dab]CG-NH2; thioether N-14) | 4.78 to 72.9 | 0.385 to 6.74 | 
2 | CCCC[C@H]1C(=O)N(C)[C@@H](CCCC)C(=O)N[C@@H](CCCNC(=N)N)C(=O)N[C@H](C(=O)NCC(N)=O)CSCC(=O)N[C@@H](Cc2ccc(O)cc2)C(=O)N(C)[C@@H](C)C(=O)N[C@@H](CCCCN)C(=O)N2CCC[C@H]2C(=O)N[C@@H](Cc2c[nH]cn2)C(=O)N[C@@H](CCC(=O)O)C(=O)N2C[C@H](O)C[C@H]2C(=O)N[C@@H](Cc2c[nH]c3ccccc23)C(=O)N[C@@H](CO)C(=O)N[C@@H](Cc2c[nH]c3ccccc23)C(=O)N1C [Example 5124] ({CH2CO}-Y[NMeA]KPHE[Hyp]WSW[NMeNle][NMeNle]RCG-NH2; thioether N-14) | 0.158 to 4.71 | 0.385 to 6.74 | 
3 | CCCC[C@H]1C(=O)N[C@@H](CCCNC(=N)N)C(=O)NC(C(=O)NCC(N)=O)CSCC(=O)N[C@@H](Cc2ccc(O)cc2)C(=O)N(C)[C@@H](C)C(=O)N[C@@H](CC(N)=O)C(=O)N2CCC[C@H]2C(=O)N[C@@H](Cc2cnc[nH]2)C(=O)N[C@@H](CC(C)C)C(=O)N2C[C@H](O)C[C@H]2C(=O)N[C@@H](Cc2c[nH]c3ccccc23)C(=O)N[C@@H](CO)C(=O)N[C@@H](Cc2csc3ccccc23)C(=O)N(C)[C@@H](C)C(=O)N1C (stereo partly shown) [Example 9056] ({CH2CO}-Y[NMeA]NPHL[Hyp]WS[Bta][NMeA][NMeNle]R[ξC]G-NH2; thioether N-14) | 0.158 to 4.71 | 0.385 to 6.74 | 
4 | CCCC[C@H]1C(=O)N(C)[C@@H](CCCC)C(=O)N[C@@H](CO)C(=O)N[C@H](C(=O)NCC(N)=O)CSCC(=O)N[C@@H](Cc2ccc(O)cc2)C(=O)N(C)[C@@H](C)C(=O)N[C@@H](CCN)C(=O)N2CCC[C@H]2C(=O)N[C@@H](Cc2c[nH]cn2)C(=O)N[C@@H](CCC(=O)O)C(=O)N2C[C@H](O)C[C@H]2C(=O)N[C@@H](Cc2c[nH]c3ccccc23)C(=O)N[C@@H](CO)C(=O)N[C@@H](Cc2c[nH]c3ccccc23)C(=O)N1C [Example 5108] ({CH2CO}-Y[NMeA][Dab]PHE[Hyp]WSW[NMeNle][NMeNle]SCG-NH2; thioether N-14) | 4.78 to 72.9 | 6.76 to 30.3 | 
5 | CCCC[C@H]1C(=O)N(C)[C@@H](CCCC)C(=O)N[C@@H](CCCNC(=N)N)C(=O)N[C@H](C(=O)NCC(N)=O)CSCC(=O)N[C@@H](Cc2cccc(C(F)(F)F)c2)C(=O)N(C)[C@@H](C)C(=O)N[C@@H](CC(N)=O)C(=O)N2CCC[C@H]2C(=O)N[C@@H](CN)C(=O)N[C@@H](CC(C)C)C(=O)N2C[C@H](O)C[C@H]2C(=O)N[C@@H](Cc2c[nH]c3ccccc23)C(=O)N[C@@H](CO)C(=O)N[C@@H](Cc2c[nH]c3ccccc23)C(=O)N1C [Example 7034] ({CH2CO}-[Phe(3-CF3)][NMeA]NP[Dap]L[Hyp]WSW[NMeNle][NMeNle]RCG-NH2; thioether N-14) | 4.78 to 72.9 | 0.385 to 6.74 | 
6 | CCCC[C@H]1C(=O)N(C)[C@@H](CCCC)C(=O)N[C@@H](CCN)C(=O)N[C@H](C(=O)NCC(N)=O)CSCC(=O)N[C@@H](Cc2ccc(O)cc2)C(=O)N(C)[C@@H](C)C(=O)N[C@@H](CC(N)=O)C(=O)N2CCC[C@H]2C(=O)N[C@@H](Cc2cnc[nH]2)C(=O)N[C@@H](CCC(N)=O)C(=O)N2C[C@H](O)C[C@H]2C(=O)N[C@@H](Cc2c[nH]c3ccccc23)C(=O)N[C@@H](CCN)C(=O)N[C@@H](Cc2c[nH]c3ccccc23)C(=O)N1C [Example 5043] ({CH2CO}-Y[NMeA]NPHQ[Hyp]W[Dab]W[NMeNle][NMeNle][Dab]CG-NH2; thioether N-14) | 0.158 to 4.71 | 6.76 to 30.3 | 
7 | CCCC[C@H]1C(=O)N(C)[C@@H](CCCC)C(=O)N[C@@H](CC(=O)O)C(=O)N[C@H](C(=O)NCC(N)=O)CSCC(=O)N[C@@H](Cc2ccc(O)cc2)C(=O)N(C)[C@@H](C)C(=O)N[C@@H](CC(N)=O)C(=O)N2CCC[C@H]2C(=O)N[C@@H](Cc2c[nH]cn2)C(=O)N[C@@H](CCC(N)=O)C(=O)N2C[C@H](O)C[C@H]2C(=O)N[C@@H](Cc2c[nH]c3ccccc23)C(=O)N[C@@H](CO)C(=O)N[C@@H](Cc2c[nH]c3ccccc23)C(=O)N1C [Example 5103] ({CH2CO}-Y[NMeA]NPHQ[Hyp]WSW[NMeNle][NMeNle]DCG-NH2; thioether N-14) | 4.78 to 72.9 | 6.76 to 30.3 | 

The next lines start with the values.

Row | IC50 [1, 2] [nM] | IC50 (Human PD-L1/PD-1) [nM] | IC50 [1, 3] [nM] | SMILES
8 |  | 6.76 to 30.3 | 4.78 to 72.9 | CCCC[C@H]1C(=O)N(C)CC(=O)N[C@@H](CC(=O)O)C(=O)N[C@@H](C(C)C)C(=O)N(C)[C@@H](Cc2ccccc2)C(=O)N[C@@H](Cc2ccc(O)cc2)C(=O)N(C)CC(=O)N[C@@H](Cc2c[nH]c3ccccc23)C(=O)N[C@@H](Cc2ccc(O)cc2)C(=O)N[C@@H](CCCCN)C(=O)N[C@H](C(=O)NCC(N)=O)CSCC(=O)N[C@@H](Cc2ccccc2)C(=O)N(C)[C@@H](Cc2ccccc2)C(=O)N1C [Example 3164] (HELM PEPTIDE1{[O=C(C[*:3])[*:2]].F.[meF].[CCCC[C@@H](C(=O)[*:2])N(C)[*:1]].[Sar].D.V.[meF].Y.[Sar].W.Y.K.C.G.[am]}$PEPTIDE1,PEPTIDE1,1:R3-14:R3$$$V2.0)
9 |  | 6.76 to 30.3 | 4.78 to 72.9 | CCCC[C@H]1C(=O)N(C)CC(=O)N[C@@H](CC(=O)O)C(=O)N[C@@H](C(C)C)C(=O)N(C)[C@@H](Cc2ccccc2)C(=O)N[C@@H](Cc2ccc(O)cc2)C(=O)N(C)CC(=O)N[C@@H](Cc2c[nH]c3ccccc23)C(=O)N[C@@H](Cc2ccc(O)cc2)C(=O)N[C@@H](CC2CCCCC2)C(=O)N[C@H](C(=O)NCC(N)=O)CSCC(=O)N[C@@H](Cc2ccccc2)C(=O)N(C)[C@@H](Cc2ccccc2)C(=O)N1C [Example 3096] (HELM PEPTIDE1{[O=C(C[*:3])[*:2]].F.[meF].[CCCC[C@@H](C(=O)[*:2])N(C)[*:1]].[Sar].D.V.[meF].Y.[Sar].W.Y.[Cha].C.G.[am]}$PEPTIDE1,PEPTIDE1,1:R3-14:R3$$$V2.0)
10 |  | 0.385 to 6.74 | 0.158 to 4.71 | CCCC[C@H]1C(=O)N(C)CC(=O)N[C@@H](CC(=O)O)C(=O)N[C@@H](C(C)C)C(=O)N(C)[C@@H](Cc2ccccc2)C(=O)N[C@@H](Cc2ccc(O)cc2)C(=O)N(C)CC(=O)N[C@@H](Cc2c[nH]c3ccccc23)C(=O)N[C@@H](Cc2ccc(O)cc2)C(=O)N[C@@H](CC(C)C)C(=O)N[C@H](C(=O)NCC(N)=O)CSCC(=O)N[C@@H](Cc2cccc(Cl)c2)C(=O)N(C)[C@@H](Cc2ccccc2)C(=O)N1C [Example 3086] ({CH2CO}-[Phe(3-Cl)][NMeF][NMeNle][Sar]DV[NMeF]Y[Sar]WYLCG-NH2; thioether N-13)
11 | > 74.3 | > 30.5 |  | CCCC[C@H]1C(=O)N(C)CC(=O)N[C@@H](CC(=O)O)C(=O)N[C@@H](C(C)C)C(=O)N(C)[C@@H](Cc2ccccc2)C(=O)N[C@@H](Cc2ccc(O)cc2)C(=O)N(C)CC(=O)N[C@@H](Cc2ccc(Cl)cc2)C(=O)N[C@@H](Cc2ccc(O)cc2)C(=O)N[C@@H](CC(C)C)C(=O)N[C@H](C(=O)NCC(N)=O)CSCC(=O)N[C@@H](Cc2ccccc2)C(=O)N(C)[C@@H](Cc2ccccc2)C(=O)N1C [Example 3546] ({CH2CO}-F[NMeF][NMeNle][Sar]DV[NMeF]Y[Sar][Phe(4-Cl)]YLCG-NH2; thioether N-13)
